This is an account of results in patent US20150136233A1, “ORGANIC PHOTOVOLTAIC DEVICES COMPRISING FULLERENES AND DERIVATIVES” (The Regents of the University of California, priority 2013, published 2015).

Data set [1] can be described thus: LUMO energy level by cyclic voltammetry. As to conditions: for LUMO Energy Level: cyclic voltammetry, onset of first reduction, ferrocene internal reference, o-dichlorobenzene/acetonitrile 4:1. The format is physicochemical. As for the experimental part: The electronic property of the synthesized fullerenes are characterized by cyclic voltammetry (CV) using a Bio-Logic Multi-channel Potentiostat with Pt as a counter electrode, Ag/Ag+ as a reference electrode and ferrocene as an internal reference, with 4:1 v/v ratio of o-dichlorobenzene and acetonitrile as solvent and 0.1 M tetrabutylammonium hexafluorophosphate as electrolyte at a scan rate of 100 mV/s. […] The LUMO levels are calculated according to the following equation 2 using the onset of the first reduction. The data are listed in Table 2, LUMOs of C60, C70, PCBM, Bis-PCBM, ICMA and ICBA were measured under the same condition and listed too as reference.
ELUMO=[(EFLN(Vs Ag/Ag+)(E^1/2Ferrocene(Vs Ag/Ag+)]−4.8 eV (equation 2)

For data set [2] the following is noted: references [15, 18]; cited from earlier work.

With “1′,4′-dihydro-naphtho[2′,3′:1,2][5,6]fullerene-C60 [IC60MA]”, in data set [1], the “LUMO increase compared to pristine C60” value was “about 0.1 eV” and the “LUMO Energy Level” value is −3.76 eV.

On to `COC(=O)CCCC1(c2ccccc2)C23c4c5c6c7c8c9c(c%10c%11c2c2c%12c4c4c%13c5c5c7c7c8c8c%14c9c%10c9c%10c%11c2c2c%11c%12c4c4c%12c%13c5c5c7c7c8c8c%14c9c9c%10c2c2c%11c4c4c%12c5c7c5c8c9c2c45)C613` (stereo not shown) [PC61BM, [6,6]-phenyl C61-butyric acid methyl ester], for which, in data set [1], the “LUMO increase compared to pristine C60” value was “about 0.1 eV” and the “LUMO Energy Level” value is listed as −3.80 eV.

Regarding “bis(1-[3-(methoxycarbonyl)propyl]-1-phenyl)[6.6]C62 [Bis-PC61BM]”, in data set [1], the “LUMO higher than that of PCBM” value turned out to be 0.1 eV and the “LUMO Energy Level” value is listed as −3.72 eV. In addition, the “LUMO of bis-addition fullerene higher than LUMO of the mono-addition fullerene (PCBM, ICMA respectively)” value in data set [2] is given as “about 0.1 eV”.
